Among the data in US8975267B2, “Tricyclic pyrrolo derivatives, process for their preparation and their use as kinase inhibitors” (Nerviano Medical Sciences S.r.l., priority 2011, dated 2015) are IC50 values, retold here.

The target in one assay is PIM-2 (Homo sapiens (Human), UniProt Q9P1W9). Put plainly: PIM-2 kinase inhibition assay: Dowex technique. The conditions noted are these: 4 microM ATP, 5 microM Aktide, 1.5 nM enzyme. The format is biochemical. The method, then: Method for PIM-2 Kinase Inhibition Assay: Dowex Technique
Chain of PIM-2 (Q9P1W9 whole entry): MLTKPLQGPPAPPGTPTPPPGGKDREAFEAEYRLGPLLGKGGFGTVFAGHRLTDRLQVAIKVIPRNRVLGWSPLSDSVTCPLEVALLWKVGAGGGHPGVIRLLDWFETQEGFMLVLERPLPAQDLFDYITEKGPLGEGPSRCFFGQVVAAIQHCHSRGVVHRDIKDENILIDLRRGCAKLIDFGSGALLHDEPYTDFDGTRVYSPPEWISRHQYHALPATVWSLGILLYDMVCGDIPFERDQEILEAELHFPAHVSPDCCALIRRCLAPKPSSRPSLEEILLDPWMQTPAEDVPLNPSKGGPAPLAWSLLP
The buffer for PIM-2 assay was composed of HEPES 50 mM, at pH 7.5, with 1 mM MgCl2, 1 mM DTT, 3 microM Na3VO4, and 0.2 mg/mL BSA
Full-length human PIM-2 was expressed and purified as described in Fedorov O, et al., PNAS 2007 104, 51, 20523-28.
Enzyme concentration=1.5 nM
Aktide substrate (Chemical Abstract Service Registry Number 324029-01-8)=5 microM
See above: same procedure as described for PIM-1.

The next assay addresses PIM-1 (Homo sapiens (Human), UniProt P11309). Put plainly: Biochemical assay for inhibitors of PIM-1 kinase activity (trans-phosphorylation, Dowex). The note with it: 200 microM ATP, 25 microM Aktide, 1 nM enzyme. The protocol:
Biochemical Assay for Inhibitors of PIM-1 Kinase Activity
(§1) The inhibitory activity of putative kinase inhibitors and the potency of selected compounds were determined using a trans-phosphorylation assay.
(§2) Specific peptide or protein substrates are trans-phosphorylated by their specific ser-thr or tyr kinase in the presence of ATP traced with ^33P-γ-ATP, and in the presence of their own optimal buffer and cofactors.
At the end of the phosphorylation reaction, more than 98% unlabeled ATP and radioactive ATP is captured by an excess of the ion exchange dowex resin; the resin then settles down to the bottom of the reaction plate by gravity.
Supernatant is subsequently withdrawn and transferred into a counting plate, then evaluated by β-counting.
The buffer for PIM-1 assay was composed of HEPES 50 mM, at pH 7.5, with 10 mM MgCl2, 1 mM DTT, 3 microM NaVO3, and 0.2 mg/ml BSA
Full-length human PIM-1 was expressed and purified as described in Bullock A N, et al., J. Biol. Chem. 2005, 280, 41675-82.
ATP concentration: 200 microM
Enzyme concentration: 1 nM
Substrate concentration Aktide (Chemical Abstract Service Registry Number 324029-01-8): 25 microM
For IC50 determination, test compounds are received as a 1 mM solution in 100% DMSO and distributed into 96-well plates: compounds are then plated into the first column of a new 96-well plate (A1 to G1), 100 microL/well.
An automated station (Biomek FX, Beckman) is used for serial dilutions, producing 1:3 dilutions in 100% DMSO, from line A1 to A10, for all the compounds in the column. Moreover, 4-5 copies of daughter plates are prepared by reformatting 5 microL of this first set of 100% DMSO dilution plates into 384-deep well plates: one copy of these serial dilution plates with the test compounds is thawed on the day of study, reconstituted at the working concentration (3-fold the final concentration) with 162 microL/well of water and used for IC50 determination assays. In a standard experiment, the highest concentration (3×) of compounds is typically 30 microM, while the lowest one is typically 1.5 nM.
Each 384-well plate generates at least one curve of the standard inhibitor staurosporine and reference wells (total enzyme activity vs. no enzymatic activity) for evaluation of Z′ and signal to background (S/B) ratio.
384-well plates, V bottom (test plates) are prepared with 5 microL of compound diluted as previously described (3×) and then placed onto a PlateTrak 12 robotized station (Perkin Elmer; the robot has one 384-tip pipetting head for assay start, plus one 96-tip head for dispensing resin) together with one reservoir for Enzyme mix (3×) and one for ATP mix (3×).
Data are analyzed by an internally customized version of the “Assay Explorer” SW package, which provides sigmoidal fitting of the ten-dilution curves for IC50 determination in secondary assay/hit confirmation routines.

The target of a further assay is MPS1 (Homo sapiens (Human), UniProt P33981). Put plainly: Biochemical assay for inhibitors of MPS1 kinase activity (trans-phosphorylation, Dowex). The note with it: 15 microM ATP, 200 microM P38-βtide substrate, 5 nM MPS1. The method, then: Cloning, Expression and Purification of Recombinant MPS1 Full Length Protein.
Chain of MPS1 (P33981 2-857): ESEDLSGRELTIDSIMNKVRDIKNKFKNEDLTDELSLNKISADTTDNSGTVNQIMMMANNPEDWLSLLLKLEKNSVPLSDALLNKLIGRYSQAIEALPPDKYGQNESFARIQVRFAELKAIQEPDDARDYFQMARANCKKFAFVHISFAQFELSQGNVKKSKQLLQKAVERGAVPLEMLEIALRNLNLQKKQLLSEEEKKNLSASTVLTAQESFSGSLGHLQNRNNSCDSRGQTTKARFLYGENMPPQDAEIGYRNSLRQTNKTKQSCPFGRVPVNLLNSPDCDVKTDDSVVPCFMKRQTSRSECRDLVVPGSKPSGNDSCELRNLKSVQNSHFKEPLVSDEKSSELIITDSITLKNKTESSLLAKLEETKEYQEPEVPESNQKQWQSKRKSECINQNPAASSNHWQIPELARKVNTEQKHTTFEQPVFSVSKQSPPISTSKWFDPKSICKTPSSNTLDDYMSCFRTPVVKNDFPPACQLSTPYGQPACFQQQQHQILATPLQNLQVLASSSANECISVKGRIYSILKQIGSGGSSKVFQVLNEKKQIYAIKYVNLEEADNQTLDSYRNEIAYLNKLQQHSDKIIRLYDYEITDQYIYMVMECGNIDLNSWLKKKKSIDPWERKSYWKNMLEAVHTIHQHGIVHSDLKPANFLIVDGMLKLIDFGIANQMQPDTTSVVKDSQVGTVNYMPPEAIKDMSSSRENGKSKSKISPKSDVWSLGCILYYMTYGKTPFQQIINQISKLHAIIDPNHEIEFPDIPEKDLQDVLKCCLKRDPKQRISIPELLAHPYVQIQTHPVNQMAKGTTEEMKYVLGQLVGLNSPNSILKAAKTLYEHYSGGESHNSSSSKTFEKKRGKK
MPS1 full length (corresponding to residues 2-857 of the full length sequence, see Swiss-Prot accession number P33981) was PCR amplified from the full-length human MPS1 gene present in house as clone pGEX4t_MPS1.
To get a fully activated enzyme, the protein was then subjected to auto-phosphorylation in presence of ATP 1 mM at 25° C. for 2 hours in kinase buffer (Hepes pH7.5 50 mM, MgCl2 2.5 mM, MnCl2 1 mM, DTT 1 mM, phosphatase inhibitors); ATP was then removed whit a desalting column.
Biochemical Assay for Inhibitors of MPS1 Kinase Activity
as §1, §2
At the end of the phosphorylation reaction, more than 98% unlabeled ATP and radioactive ATP is captured by an excess of the ion exchange dowex resin; the resin then settles down to the bottom of the reaction plate by gravity. Supernatant is subsequently withdrawn and transferred into a counting plate, then evaluated by β-counting.
The buffer for MPS1 assay was composed of HEPES 50 mM, at pH 7.5, with 2.5 mM MgCl2, 1 mM MnCl2, 1 mM DTT, 3 microM Na3VO4, 2 mM β-glycerophosphate and 0.2 mg/mL BSA.
The assay was run with a final concentration MPS1 of 5 nM, in the presence of 15 microM ATP and 1.5 nM ^33P-γ-ATP; the substrate was P38-βtide, used at 200 microM.
a) for percent inhibition studies (HTS), individual dilution plates at 1 mM are diluted at a 3× concentration (30 microM) in ddH2O (3% DMSO=final concentration) using a Beckman NX automated pipetting platform. The same instrument is used for distributing the diluted mother plates into the test plates. b) for IC50 determination (KSS platform), 100 microL of each compound at 1 mM in 100% DMSO are transferred from the original plate into the first column of another 96 well plate (A1 to G1); well H1 is left empty for the internal standard inhibitor, usually staurosporine.
An automated station for serial dilutions (Biomek FX, Beckman) is used for producing 1:3 dilutions in 100% DMSO, from line A1 to A10, and for all the seven compounds in the column. Moreover, 4-5 copies of daughter plates are prepared by reformatting 5 microL of this first set of 100% DMSO dilution plates into 384 deep well-plates: one copy of the daughter plates with the serial dilutions of test compounds will be thaw the day of the experiments, reconstituted at a 3× concentration with water and used in the IC50 determination assays. In a standard experiment, the highest concentration (3×) of all compounds is 30 microM, while the lowest one is 1.5 nM.
384-well plates, V bottom (test plates) are prepared with 5 microL of the compound dilution (3×) and then placed onto a PlateTrak 12 robotized station (Perkin Elmer; the robot has one 384-tips pipetting head for starting the assay plus one 96-tips head for dispensing the resin) together with one reservoir for the Enzyme mix (3×) and one for the ATP mix (3×).
At the start of the run, the robot aspirates 5 microL of ATP mix, makes an air gap inside the tips (2 microL) and aspirates 5 microL of MPS1 mix. The following dispensation into the plates allows the kinase reaction to start upon 3 cycles of mixing, done by the robot itself.
The robot incubates the plates for 60 minutes at room temperature, and then stops the reaction by pipetting 70 microL of dowex resin suspension into the reaction mix. Three cycles of mixing are done immediately after the addition of the resin.
Another mixing cycle is performed after all the plates are stopped, this time using normal tips: the plates are then allowed to rest for about one hour in order to maximize ATP capture. […]

Molecules are shown by their SMILES. Counter-ions that a name gives are not always drawn.

Chain of PIM-1 (P11309 whole entry): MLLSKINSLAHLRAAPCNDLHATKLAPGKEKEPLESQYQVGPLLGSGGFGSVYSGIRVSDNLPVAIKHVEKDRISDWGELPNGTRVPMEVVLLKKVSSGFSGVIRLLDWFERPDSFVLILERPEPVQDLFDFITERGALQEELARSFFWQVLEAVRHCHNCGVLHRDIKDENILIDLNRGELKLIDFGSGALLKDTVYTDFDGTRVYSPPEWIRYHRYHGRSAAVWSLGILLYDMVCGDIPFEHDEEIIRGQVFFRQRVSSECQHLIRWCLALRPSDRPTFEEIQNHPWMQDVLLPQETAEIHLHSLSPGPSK

One may read the IC50 as the concentration needed to halve the response being measured. Consider `CCc1cccc(CC)c1NC(=O)c1cn(C)c2c1CCCc1cnc(Nc3ccc(N4CCN(C)CC4)cc3OC)nc1-2` [Compound 16, N-(2,6-diethylphenyl)-2-{[2-methoxy-4-(4-methylpiperazin-1-yl)phenyl]amino}-10-methyl-5,6,7,10-tetrahydropyrrolo[3′,2′:6,7]cyclohepta[1,2-d]pyrimidine-8-carboxamide], for which the IC50 against PIM-2 was more than 10 µM; against PIM-1 it was more than 10 µM; on MPS1, 0.132 µM.
For `Cn1cc(C(N)=O)c2c1-c1nc(N)ncc1CC2` [Ref. cmpound 1, 2-amino-9-methyl-6,9-dihydro-5H-pyrrolo[3,2-h]quinazoline-7-carboxamide, reference compound], the IC50 against PIM-2, against PIM-1 and against MPS1 was more than 10 µM each time.
Regarding `CSc1ncc2c(n1)-c1c(c(C(N)=O)cn1CCO)CC2` [Compound 25, 9-(2-hydroxyethyl)-2-(methylsulfanyl)-6,9-dihydro-5H-pyrrolo[3,2-h]quinazoline-7-carboxamide], the IC50 against PIM-2 was 0.54 µM; on PIM-1, 0.133 µM; on MPS1 it was 2.44 µM.
On to `CSc1ncc2ccc3c(C(N)=O)cn(CC(C)(C)CN)c3c2n1` [Compound 38, 9-(3-amino-2,2-dimethylpropyl)-2-(methylsulfanyl)-9H-pyrrolo[3,2-h]quinazoline-7-carboxamide hydrochloride], for which the IC50 against PIM-2 stood at 0.034 µM; on PIM-1 it was 0.024 µM; on MPS1, 2.94 µM.
On to `CSc1ncc2c(n1)-c1c(c(C(N)=O)cn1[C@H]1CC[C@@H](N)CC1)CC2` [Compound 33, 9-(cis 4-aminocyclohexyl)-2-(methylsulfanyl)-6,9-dihydro-5H-pyrrolo[3,2-h]quinazoline-7-carboxamide hydrochloride], for which the figures for the IC50 at PIM-2, against PIM-1 and against MPS1 were 0.007 µM, 0.005 µM and 1.55 µM, respectively.
Consider `CSc1ncc2ccc3c(C(N)=O)c(C)n(C(C)C)c3c2n1` [Compound 30, 8-methyl-2-(methylsulfanyl)-9-(propan-2-yl)-9H-pyrrolo[3,2-h]quinazoline-7-carboxamide], for which the IC50 was determined as 0.012 µM against PIM-2, 0.004 µM on PIM-1 and 0.622 µM on MPS1.
Regarding `Cn1c2c(c(C(N)=O)c1-c1ccccc1)CCc1cnc(N)nc1-2` [compound 3, 2-amino-9-methyl-8-phenyl-6,9-dihydro-5H-pyrrolo[3,2-h]quinazoline-7-carboxamide, reference compound], the IC50 on PIM-2 was more than 10 µM; against PIM-1, more than 5 µM; against MPS1, more than 5 µM.
With `NC(=O)c1c(-c2ccccc2)[nH]c2c1ccc1cnc(N)nc12` [compound 2, 2-amino-8-phenyl-9H-pyrrolo[3,2-h]quinazoline-7-carboxamide, reference compound], the IC50 against PIM-2 is more than 10 µM; against PIM-1, more than 5 µM; at MPS1, more than 5 µM.
For `CSc1ncc2c(n1)-c1c(c(C(N)=O)cn1C1CCNCC1)CC2` [Compound 32, 2-(methylsulfanyl)-9-(piperidin-4-yl)-6,9-dihydro-5H-pyrrolo[3,2-h]quinazoline-7-carboxamide hydrochloride], the IC50 against PIM-2 is 0.159 µM; against PIM-1, 0.074 µM; against MPS1, more than 10 µM.
Take `CSc1ncc2ccc3c(C(N)=O)cn([C@H]4CC[C@@H](N)CC4)c3c2n1` [Compound 34, 9-(cis-4-aminocyclohexyl)-2-(methylsulfanyl)-9H-pyrrolo[3,2-h]quinazoline-7-carboxamide]: the results for the IC50 against PIM-2, on PIM-1 and on MPS1 were 0.001 µM, 0.0008 µM and 0.855 µM, respectively.
On the same counts, the results for `COc1cc(N2CCN(C)CC2)ccc1Nc1ncc2c(n1)-c1c(c(C(N)=O)c(C)n1C)CC2` [Compound 7, 2-{[2-methoxy-4-(4-methylpiperazin-1-yl)phenyl]amino}-8,9-dimethyl-6,9-dihydro-5H-pyrrolo[3,2-h]quinazoline-7-carboxamide] are more than 5 µM, 0.748 µM and 0.023 µM.
On the same counts, the results for `CSc1ncc2c(n1)-c1c(c(C(N)=O)cn1C(C)C)CC2` [Compound 22, 2-(methylsulfanyl)-9-(propan-2-yl)-6,9-dihydro-5H-pyrrolo[3,2-h]quinazoline-7-carboxamide] are 0.024 µM, 0.016 µM and 0.382 µM.
Take `CSc1ncc2ccc3c(C(N)=O)c(C)n(CCO)c3c2n1` [Compound 29, 9-(2-hydroxyethyl)-8-methyl-2-(methylsulfanyl)-9H-pyrrolo[3,2-h]quinazoline-7-carboxamide]: the figures for the IC50 against PIM-2, against PIM-1 and at MPS1 were 0.408 µM, 0.087 µM and 2.94 µM, respectively.
As to `CSc1ncc2ccc3c(C(N)=O)c[nH]c3c2n1` [Compound 36, 2-(methylsulfanyl)-9H-pyrrolo[3,2-h]quinazoline-7-carboxamide], the IC50 against PIM-2 is 0.046 µM; at PIM-1 it was 0.013 µM; at MPS1 it was 0.814 µM.
With `CCc1cccc(CC)c1NC(=O)c1c2c(n(C)c1C)-c1nc(Nc3ccc(N4CCC(N5CCCC5)CC4)cc3OC)ncc1CC2` [Compound 3, N-(2,6-diethylphenyl)-2-({2-methoxy-4-[4-(pyrrolidin-1-yl)piperidin-1-yl]phenyl}amino)-8,9-dimethyl-6,9-dihydro-5H-pyrrolo[3,2-h]quinazoline-7-carboxamide], the IC50 on PIM-2 is more than 10 µM; against PIM-1, more than 10 µM; against MPS1, 0.099 µM.
